Calls of active or inactive are those of the source. The calls are words filed in the database; no cut-off is given here.
What was measured:
[1] = Chemical stability in 0.1 M HCl at pH 1.2 assessed as half life measured up to 12 hrs by HPLC analysis; type: physicochemical
[2] = Chemical stability in acetate buffer at pH 4.5 assessed as half life measured up to 12 hrs by HPLC analysis; type: physicochemical
[3] = Chemical stability in phosphate buffer at pH 6.8 assessed as half life measured up to 12 hrs by HPLC analysis; type: physicochemical
[4] = Chemical stability in phosphate buffer at pH 7.2 assessed as half life measured up to 12 hrs by HPLC analysis; type: physicochemical
[5] = Stability in simulated gastric fluid at pH 1.2 assessed as half life measured up to 12 hrs by HPLC analysis; type: ADME
[6] = Stability in simulated intestinal fluid at pH 6.8 assessed as half life measured up to 12 hrs by HPLC analysis; type: ADME
[7] = Metabolic stability in healthy C57BL/6 mouse jejunum assessed as half life measured up to 12 hrs by HPLC analysis; type: ADME, tissue-based
[8] = Metabolic stability in healthy C57BL/6 mouse colon assessed as half life measured up to 12 hrs by HPLC analysis; type: ADME, tissue-based
[9] = Metabolic stability in healthy C57BL/6 mouse colonic flora homogenate assessed as half life measured up to 12 hrs by HPLC analysis; type: ADME
[10] = Metabolic stability in healthy C57BL/6 mouse liver assessed as half life measured up to 12 hrs by HPLC analysis; type: ADME, tissue-based
[11] = Metabolic stability in healthy C57BL/6 mouse plasma assessed as half life measured up to 12 hrs by HPLC analysis; type: ADME, cell-free
[12] = Metabolic stability in DSS-induced C57BL/6 mouse jejunum assessed as half life measured up to 12 hrs by HPLC analysis; type: ADME, tissue-based
[13] = Metabolic stability in DSS-induced C57BL/6 mouse colon assessed as half life measured up to 12 hrs by HPLC analysis; type: ADME, tissue-based
[14] = Metabolic stability in DSS-induced C57BL/6 inflammatory mouse model colonic flora homogenate assessed as half life measured up to 12 hrs by HPLC analysis; type: ADME; details: C57BL/6, mouse
[15] = Stability in human Caco-2 cells homogenate assessed as half life measured up to 12 hrs by HPLC analysis; type: ADME, cell-based; details: Caco-2 cell homogenate
[16] = molecular target: T1, Solute carrier family 15 member 1 (Rattus norvegicus, UniProt P51574); test: Substrate activity in PEPT1 in Sprague-Dawley rat jejunum assessed as fold increase in effective permeability at 5 mM measured up to 60 mins in presence of Gly-Sar by HPLC analysis relative to its enantiomers; type: ADME, tissue-based; details: 1 h, 5000 µM
T1 sequence (P51574 whole entry): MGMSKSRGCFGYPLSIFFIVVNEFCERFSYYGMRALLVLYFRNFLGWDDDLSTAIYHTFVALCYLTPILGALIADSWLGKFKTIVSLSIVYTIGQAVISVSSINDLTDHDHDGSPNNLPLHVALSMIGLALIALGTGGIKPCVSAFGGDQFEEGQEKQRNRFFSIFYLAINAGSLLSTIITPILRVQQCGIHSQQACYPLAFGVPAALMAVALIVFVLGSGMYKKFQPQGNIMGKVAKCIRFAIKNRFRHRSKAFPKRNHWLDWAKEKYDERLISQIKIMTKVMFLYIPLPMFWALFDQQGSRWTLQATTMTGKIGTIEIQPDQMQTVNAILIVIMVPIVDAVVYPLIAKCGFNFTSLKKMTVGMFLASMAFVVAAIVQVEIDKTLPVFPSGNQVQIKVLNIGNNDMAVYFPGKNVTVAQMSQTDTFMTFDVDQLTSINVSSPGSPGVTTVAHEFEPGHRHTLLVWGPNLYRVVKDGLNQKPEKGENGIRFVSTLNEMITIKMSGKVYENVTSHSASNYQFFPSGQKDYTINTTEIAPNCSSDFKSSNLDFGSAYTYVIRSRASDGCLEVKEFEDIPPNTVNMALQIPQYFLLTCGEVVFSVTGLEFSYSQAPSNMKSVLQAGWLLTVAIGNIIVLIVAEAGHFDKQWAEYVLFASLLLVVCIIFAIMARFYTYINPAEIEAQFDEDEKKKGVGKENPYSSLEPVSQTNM

[17] = molecular target: T2, Solute carrier family 15 member 1 (Homo sapiens, UniProt P46059); test: Substrate activity at PEPT1 in human Caco-2 cells assessed as inhibition of Gly-Sar substrate uptake by UPLC-MS/MS analysis; type: cell-based
T2 sequence (P46059 whole entry): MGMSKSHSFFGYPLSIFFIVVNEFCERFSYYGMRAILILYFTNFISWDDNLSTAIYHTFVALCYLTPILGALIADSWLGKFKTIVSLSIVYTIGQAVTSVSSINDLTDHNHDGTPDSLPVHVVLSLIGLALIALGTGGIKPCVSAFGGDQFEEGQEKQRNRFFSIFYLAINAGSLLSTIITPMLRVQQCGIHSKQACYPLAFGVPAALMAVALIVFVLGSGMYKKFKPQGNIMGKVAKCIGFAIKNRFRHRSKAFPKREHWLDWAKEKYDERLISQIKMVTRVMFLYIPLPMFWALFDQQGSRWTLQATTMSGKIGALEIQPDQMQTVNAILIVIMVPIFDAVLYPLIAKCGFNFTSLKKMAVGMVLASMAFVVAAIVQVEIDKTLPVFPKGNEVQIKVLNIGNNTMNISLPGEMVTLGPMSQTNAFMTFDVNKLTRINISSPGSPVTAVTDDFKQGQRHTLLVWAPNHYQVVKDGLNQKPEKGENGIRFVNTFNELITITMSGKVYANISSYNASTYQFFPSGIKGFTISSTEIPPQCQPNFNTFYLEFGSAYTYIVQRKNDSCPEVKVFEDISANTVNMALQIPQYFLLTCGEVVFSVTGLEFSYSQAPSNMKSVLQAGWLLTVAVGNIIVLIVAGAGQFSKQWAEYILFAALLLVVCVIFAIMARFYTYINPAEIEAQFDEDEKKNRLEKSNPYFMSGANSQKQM

[18] = molecular target: T2, Solute carrier family 15 member 1; test: Substrate activity at PEPT1 in human Caco-2 cells assessed as fold increase in drug uptake by UPLC-MS/MS analysis relative to its enantiomers; type: ADME, cell-based
[19] = molecular target: T2, Solute carrier family 15 member 1; test: Substrate activity at PEPT1 in human Caco-2 cells assessed as fold reduction in drug uptake in presence of Gly-Sar by UPLC-MS/MS analysis relative to its enantiomers; type: ADME, cell-based
[20] = AUC (0 to 6 hrs) in DSS-induced colitis C57BL/6 mouse model at 25 mg/kg, po measured up to 6 hrs by UPLC-MS/MS analysis; type: ADME, organism-based; parameters: route oral, dose 25 mg/kg, time <=6; details: in vivo
[21] = Cmax in DSS-induced colitis C57BL/6 mouse model at 25 mg/kg, po measured up to 6 hrs by UPLC-MS/MS analysis; type: ADME, organism-based; parameters: route oral, dose 25 mg/kg, time <=6; details: in vivo
[22] = Tmax in DSS-induced colitis C57BL/6 mouse model at 25 mg/kg, po measured up to 6 hrs by UPLC-MS/MS analysis; type: ADME, organism-based; details: in vivo
[23] = system: Mus musculus; test: Anti-colitis activity against DSS-induced colitis in C57BL/6 mouse model assessed as assessed as recovery of body weight at 25 mg/kg, po administered via gavage twice daily for 10 days; type: functional, organism-based; details: time 10.0 day
[24] = system: Mus musculus; test: Anti-colitis activity against DSS-induced colitis in C57BL/6 mouse model assessed as increase in colon length at 25 mg/kg, po administered via gavage twice daily for 10 days; type: functional, organism-based; details: time 10.0 day
[25] = system: Mus musculus; test: Anti-colitis activity against DSS-induced colitis in C57BL/6 mouse model assessed as fold decrease in disease activity index at 25 mg/kg, po administered via gavage twice daily for 10 days relative to control; type: functional; details: time 10 day
[26] = Apparent permeability across apical to basolateral side in human Caco-2 cells assessed as fold increase in permeability at 0.5 mM measured up to 60 mins by UPLC-MS/MS analysis relative to its enantiomers; type: ADME, cell-based; details: caco-2, 1 h, 500 µM
[27] = system: Jejunum; test: Effective permeability in Sprague-Dawley rat jejunum assessed as fold increase in permeability at 5 mM measured up to 60 mins by HPLC analysis relative to its enantiomers; type: ADME, tissue-based; details: 1 h, 5000 µM
[28] = system: Mus musculus; test: Anti-colitis activity against DSS-induced C57BL/6 mouse model of colitis assessed as assessed as body weight recovery at 50 mg/kg, po administered via gavage DSS stimulation for 5 days followed by compound addition once daily for 10 days; type: functional, organism-based; details: time 10.0 day
[29] = system: Mus musculus; test: Anti-colitis activity against DSS-induced C57BL/6 mouse model of colitis assessed as increase in colon length at 50 mg/kg, po administered via gavage DSS stimulation for 5 days followed by compound addition once daily for 10 days; type: functional, organism-based; details: time 10.0 day
[30] = system: Mus musculus; test: Anti-colitis activity against DSS-induced colitis in C57BL/6 mouse model assessed as fold decrease in disease activity index at 50 mg/kg, po administered via gavage twice daily for 10 days relative to control; type: functional; details: time 10 day
[31] = system: Mus musculus; test: Anti-colitis activity against DSS-induced colitis in C57BL/6 mouse model assessed as body weight recovery at 50 mg/kg, po administered via gavage twice a day for 10 days; type: functional, organism-based; details: time 10.0 day
[32] = system: Mus musculus; test: Anti-colitis activity against DSS-induced colitis in C57BL/6 mouse model assessed as increase in colon length at 50 mg/kg, po administered via gavage twice a day for 10 days; type: functional, organism-based; details: time 10.0 day
[33] = system: Mus musculus; test: Anti-colitis activity against DSS-induced colitis in C57BL/6 mouse model assessed as reduction colonic damage at 50 mg/kg, po administered via gavage twice a day for 10 days; type: functional, organism-based; details: time 10.0 day
[34] = system: Mus musculus; test: Anti-colitis activity against DSS-induced C57BL/6 mouse model of colitis assessed as fold change in body weight recovery at 25 to 100 mg/kg, po administered via gavage twice a day for 10 days relative to SASP; type: functional; details: dose 25-100 mg/kg; time 10 day
[35] = system: Mus musculus; test: Anti-colitis activity against DSS-induced C57BL/6 mouse model of colitis assessed as fold change in colon length at 25 to 100 mg/kg, po administered via gavage twice a day for 10 days relative to SASP; type: functional; details: dose 25-100 mg/kg; time 10 day
[36] = system: Mus musculus; test: Anti-colitis activity against DSS-induced C57BL/6 mouse model of colitis assessed as fold change in disease activity index at 25 to 100 mg/kg, po administered via gavage twice a day for 10 days relative to SASP; type: functional; details: dose 25-100 mg/kg; time 10 day
[37] = system: Mus musculus; test: Anti-colitis activity against DSS-induced colitis in C57BL/6 mouse model assessed as decrease in MPO level in colon at 50 mg/kg, po administered via gavage twice a day for 10 days; type: functional; parameters: scale not given: the % may be the effect or the level left; details: time 10 day
[38] = system: Mus musculus; test: Antiinflammatory activity in DSS-induced C57BL/6 mouse model of colitis assessed as decrease in TNF-alpha level 25 to 100 mg/kg, po administered via gavage twice a day for 10 days; type: functional, organism-based; details: dose 25-100 mg/kg, time 10.0 day
[39] = system: Mus musculus; test: Antiinflammatory activity in DSS-induced C57BL/6 mouse model of colitis assessed as decrease in IL-1beta level 25 to 100 mg/kg, po administered via gavage twice a day for 10 days; type: functional, organism-based; details: dose 25-100 mg/kg, time 10.0 day
[40] = system: Mus musculus; test: Antiinflammatory activity in DSS-induced C57BL/6 mouse model of colitis assessed as decrease in […] level 25 to 100 mg/kg, po administered via gavage twice a day for 10 days; type: functional, organism-based; details: dose 25-100 mg/kg, time 10.0 day
[41] = system: Mus musculus; test: Antiinflammatory activity in DSS-induced C57BL/6 mouse model of colitis assessed as increase in IL-10 level 25 to 100 mg/kg, po administered via gavage twice a day for 10 days; type: functional, organism-based; details: dose 25-100 mg/kg, time 10.0 day

Compound	half-life [1] [h]	half-life [2] [h]	half-life [3] [h]	half-life [4] [h]	half-life [5] [h]	half-life [6] [h]	half-life [7] [h]	half-life [8] [h]	half-life [9] [h]	half-life [10] [h]	half-life [11] [h]	half-life [12] [h]	half-life [13] [h]	half-life [14] [h]	half-life [15] [h]	fold change (FC) [16]	IC50 [17] [mM]	fold change (FC) [18]	Activity [23]	Activity [24]	other results
O=C(N[C@H](CO)C(=O)O)[C@@H]1C[C@@H](O)CN1	> 12	> 12	> 12	> 12	> 12	> 12	0.33	> 12	0.91	0.32	> 12	0.39	> 12	0.99	> 12	4.6	10.2	3.3	Active	Active	fold change (FC) [19]: 3.4; AUC [20]: 1.67 microM/L.hr; Cmax [21]: 640 nM; Tmax [22]: 2 h; fold change (FC) [25]: 1.5; fold change (FC) [26]: 6.3; fold change (FC) [27]: 7.3
O=C(O)[C@H](CO)NC(=O)[C@@H]1C[C@@H](O)CN1	> 12	> 12	> 12	> 12	> 12	> 12	0.35	> 12	0.86	0.27	> 12	0.29	> 12	0.88	> 12	7.8	5.18	3.3	Active	Active	fold change (FC) [19]: 3.4; AUC [20]: 1.34 microM/L.hr; Cmax [21]: 520 nM; Tmax [22]: 2 h; fold change (FC) [25]: 1.5; fold change (FC) [26]: 6.3; fold change (FC) [27]: 7.3
O=C(O)c1cc(/N=N/c2ccc(S(=O)(=O)Nc3ccccn3)cc2)ccc1O [SULFASALAZINE]																			Active	Active	Activity [28]: Active; Activity [29]: Active; fold change (FC) [30]: 1.5; Activity [31]: Active; Activity [32]: Active; Activity [33]: Active; fold change (FC) [34]: 2.1; fold change (FC) [35]: 1.2; fold change (FC) [36]: 2.3; Activity [37]: 27.3%; Activity [38]: Active; Activity [39]: Active; Activity [40]: Active; Activity [41]: Active

Reference: ChEMBL document CHEMBL5046231, “Modulation of Naturally Occurring Linear Dipeptide Chirality to Reduce the Affinity for Oligopeptide Transporter 1 and Increase Intestinal Stability for an Enhanced Colon-Targeting Effect in the Treatment of Inflammatory Bowel Disease: An Application of trans-4-l-Hydroxyprolyl-l-serine” (J Med Chem, 2022)
